Tests used:
CBP = biological target: T1, CBP (Homo sapiens, UniProt Q92793); assay: CBP degradation, HiBit technology in A549 CBP HiBit cells (24 h); format: cell-based; conditions: 24 hrs post treatment
T1 construct: host or cells: A549 CBP HiBit cells
Method in brief: (§1)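 HiBiT knock-in A549 cells received compound in serial dilution at 37 °C under 5% CO2. Remaining tagged protein was quantified by lytic HiBiT luminescence after 10 min shaking at room temperature, yielding potency and maximal degradation.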

p300 = biological target: T2, p300 (Homo sapiens, UniProt Q09472); assay: P300 degradation, HiBit technology in A549 P300 HiBit cells (2 h); format: cell-based; conditions: 2 hrs post treatment; for Dmax: A549, A549 P300 HiBit cells; for DC50 / P300 A549 2 h HiBit DMax (%): A549 P300 HiBit cells
T2 construct: host or cells: A549 P300 HiBit cells
T2 sequence (Q09472 whole entry): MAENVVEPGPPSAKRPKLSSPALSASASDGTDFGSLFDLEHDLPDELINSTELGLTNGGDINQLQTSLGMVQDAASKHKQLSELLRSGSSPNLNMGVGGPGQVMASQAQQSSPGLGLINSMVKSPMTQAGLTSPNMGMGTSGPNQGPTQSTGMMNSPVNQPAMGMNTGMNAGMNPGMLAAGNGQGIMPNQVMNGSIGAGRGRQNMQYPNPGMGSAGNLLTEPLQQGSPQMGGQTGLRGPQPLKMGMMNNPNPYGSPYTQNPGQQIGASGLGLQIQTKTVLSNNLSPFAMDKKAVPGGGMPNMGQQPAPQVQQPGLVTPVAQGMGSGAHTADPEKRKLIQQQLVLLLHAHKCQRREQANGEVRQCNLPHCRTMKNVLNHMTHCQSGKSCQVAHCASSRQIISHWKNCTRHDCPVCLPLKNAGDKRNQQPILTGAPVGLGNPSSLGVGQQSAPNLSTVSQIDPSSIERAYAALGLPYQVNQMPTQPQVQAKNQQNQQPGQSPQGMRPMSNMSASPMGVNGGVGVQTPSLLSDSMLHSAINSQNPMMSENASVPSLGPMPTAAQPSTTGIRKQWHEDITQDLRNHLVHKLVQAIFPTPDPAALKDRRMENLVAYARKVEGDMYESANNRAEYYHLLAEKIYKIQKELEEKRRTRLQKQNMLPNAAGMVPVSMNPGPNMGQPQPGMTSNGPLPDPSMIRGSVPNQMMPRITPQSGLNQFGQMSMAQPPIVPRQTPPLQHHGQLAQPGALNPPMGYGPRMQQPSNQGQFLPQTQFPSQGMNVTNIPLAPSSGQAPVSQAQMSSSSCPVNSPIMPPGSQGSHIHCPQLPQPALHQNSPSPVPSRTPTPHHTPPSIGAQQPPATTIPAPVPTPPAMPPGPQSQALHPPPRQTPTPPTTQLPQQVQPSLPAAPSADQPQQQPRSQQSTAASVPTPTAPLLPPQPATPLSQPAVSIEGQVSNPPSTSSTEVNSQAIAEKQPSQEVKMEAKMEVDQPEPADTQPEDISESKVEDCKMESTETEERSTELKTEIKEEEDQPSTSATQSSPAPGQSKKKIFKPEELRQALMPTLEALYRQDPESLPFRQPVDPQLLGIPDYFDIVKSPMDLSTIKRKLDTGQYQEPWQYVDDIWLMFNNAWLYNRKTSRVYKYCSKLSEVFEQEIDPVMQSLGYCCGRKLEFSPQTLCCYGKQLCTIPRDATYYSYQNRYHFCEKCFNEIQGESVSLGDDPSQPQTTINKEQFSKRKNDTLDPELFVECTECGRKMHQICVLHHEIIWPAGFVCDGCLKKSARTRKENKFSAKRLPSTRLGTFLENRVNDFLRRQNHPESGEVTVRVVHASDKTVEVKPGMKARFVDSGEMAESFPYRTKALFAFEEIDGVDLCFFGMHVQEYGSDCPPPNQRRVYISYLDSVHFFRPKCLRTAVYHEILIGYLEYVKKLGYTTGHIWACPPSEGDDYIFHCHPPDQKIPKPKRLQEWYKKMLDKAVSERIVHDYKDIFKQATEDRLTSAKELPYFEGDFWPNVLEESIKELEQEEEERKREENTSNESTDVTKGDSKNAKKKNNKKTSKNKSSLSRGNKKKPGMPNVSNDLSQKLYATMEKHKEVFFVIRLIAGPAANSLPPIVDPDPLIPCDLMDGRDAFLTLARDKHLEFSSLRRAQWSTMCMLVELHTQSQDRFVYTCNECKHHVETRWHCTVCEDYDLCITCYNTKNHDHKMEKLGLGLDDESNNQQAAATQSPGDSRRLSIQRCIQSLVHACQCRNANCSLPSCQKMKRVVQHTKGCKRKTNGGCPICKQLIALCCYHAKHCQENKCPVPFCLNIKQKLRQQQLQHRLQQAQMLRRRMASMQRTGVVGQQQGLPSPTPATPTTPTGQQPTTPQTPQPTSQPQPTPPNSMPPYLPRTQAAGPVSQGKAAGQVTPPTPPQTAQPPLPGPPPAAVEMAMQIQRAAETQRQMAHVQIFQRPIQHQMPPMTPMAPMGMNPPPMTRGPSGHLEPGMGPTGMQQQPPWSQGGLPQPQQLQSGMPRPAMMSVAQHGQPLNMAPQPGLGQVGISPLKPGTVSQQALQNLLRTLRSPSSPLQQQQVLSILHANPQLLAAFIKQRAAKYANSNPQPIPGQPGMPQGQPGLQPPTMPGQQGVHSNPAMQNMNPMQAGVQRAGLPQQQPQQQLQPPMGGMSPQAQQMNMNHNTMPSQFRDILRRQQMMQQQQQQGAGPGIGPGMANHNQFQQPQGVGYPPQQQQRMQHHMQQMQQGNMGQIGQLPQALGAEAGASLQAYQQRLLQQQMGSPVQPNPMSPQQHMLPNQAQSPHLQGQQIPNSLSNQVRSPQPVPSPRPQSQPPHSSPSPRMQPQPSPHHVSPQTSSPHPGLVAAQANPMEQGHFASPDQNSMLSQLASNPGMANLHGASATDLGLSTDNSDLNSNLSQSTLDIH
Method in brief: as §1

T1 sequence (Q92793 whole entry): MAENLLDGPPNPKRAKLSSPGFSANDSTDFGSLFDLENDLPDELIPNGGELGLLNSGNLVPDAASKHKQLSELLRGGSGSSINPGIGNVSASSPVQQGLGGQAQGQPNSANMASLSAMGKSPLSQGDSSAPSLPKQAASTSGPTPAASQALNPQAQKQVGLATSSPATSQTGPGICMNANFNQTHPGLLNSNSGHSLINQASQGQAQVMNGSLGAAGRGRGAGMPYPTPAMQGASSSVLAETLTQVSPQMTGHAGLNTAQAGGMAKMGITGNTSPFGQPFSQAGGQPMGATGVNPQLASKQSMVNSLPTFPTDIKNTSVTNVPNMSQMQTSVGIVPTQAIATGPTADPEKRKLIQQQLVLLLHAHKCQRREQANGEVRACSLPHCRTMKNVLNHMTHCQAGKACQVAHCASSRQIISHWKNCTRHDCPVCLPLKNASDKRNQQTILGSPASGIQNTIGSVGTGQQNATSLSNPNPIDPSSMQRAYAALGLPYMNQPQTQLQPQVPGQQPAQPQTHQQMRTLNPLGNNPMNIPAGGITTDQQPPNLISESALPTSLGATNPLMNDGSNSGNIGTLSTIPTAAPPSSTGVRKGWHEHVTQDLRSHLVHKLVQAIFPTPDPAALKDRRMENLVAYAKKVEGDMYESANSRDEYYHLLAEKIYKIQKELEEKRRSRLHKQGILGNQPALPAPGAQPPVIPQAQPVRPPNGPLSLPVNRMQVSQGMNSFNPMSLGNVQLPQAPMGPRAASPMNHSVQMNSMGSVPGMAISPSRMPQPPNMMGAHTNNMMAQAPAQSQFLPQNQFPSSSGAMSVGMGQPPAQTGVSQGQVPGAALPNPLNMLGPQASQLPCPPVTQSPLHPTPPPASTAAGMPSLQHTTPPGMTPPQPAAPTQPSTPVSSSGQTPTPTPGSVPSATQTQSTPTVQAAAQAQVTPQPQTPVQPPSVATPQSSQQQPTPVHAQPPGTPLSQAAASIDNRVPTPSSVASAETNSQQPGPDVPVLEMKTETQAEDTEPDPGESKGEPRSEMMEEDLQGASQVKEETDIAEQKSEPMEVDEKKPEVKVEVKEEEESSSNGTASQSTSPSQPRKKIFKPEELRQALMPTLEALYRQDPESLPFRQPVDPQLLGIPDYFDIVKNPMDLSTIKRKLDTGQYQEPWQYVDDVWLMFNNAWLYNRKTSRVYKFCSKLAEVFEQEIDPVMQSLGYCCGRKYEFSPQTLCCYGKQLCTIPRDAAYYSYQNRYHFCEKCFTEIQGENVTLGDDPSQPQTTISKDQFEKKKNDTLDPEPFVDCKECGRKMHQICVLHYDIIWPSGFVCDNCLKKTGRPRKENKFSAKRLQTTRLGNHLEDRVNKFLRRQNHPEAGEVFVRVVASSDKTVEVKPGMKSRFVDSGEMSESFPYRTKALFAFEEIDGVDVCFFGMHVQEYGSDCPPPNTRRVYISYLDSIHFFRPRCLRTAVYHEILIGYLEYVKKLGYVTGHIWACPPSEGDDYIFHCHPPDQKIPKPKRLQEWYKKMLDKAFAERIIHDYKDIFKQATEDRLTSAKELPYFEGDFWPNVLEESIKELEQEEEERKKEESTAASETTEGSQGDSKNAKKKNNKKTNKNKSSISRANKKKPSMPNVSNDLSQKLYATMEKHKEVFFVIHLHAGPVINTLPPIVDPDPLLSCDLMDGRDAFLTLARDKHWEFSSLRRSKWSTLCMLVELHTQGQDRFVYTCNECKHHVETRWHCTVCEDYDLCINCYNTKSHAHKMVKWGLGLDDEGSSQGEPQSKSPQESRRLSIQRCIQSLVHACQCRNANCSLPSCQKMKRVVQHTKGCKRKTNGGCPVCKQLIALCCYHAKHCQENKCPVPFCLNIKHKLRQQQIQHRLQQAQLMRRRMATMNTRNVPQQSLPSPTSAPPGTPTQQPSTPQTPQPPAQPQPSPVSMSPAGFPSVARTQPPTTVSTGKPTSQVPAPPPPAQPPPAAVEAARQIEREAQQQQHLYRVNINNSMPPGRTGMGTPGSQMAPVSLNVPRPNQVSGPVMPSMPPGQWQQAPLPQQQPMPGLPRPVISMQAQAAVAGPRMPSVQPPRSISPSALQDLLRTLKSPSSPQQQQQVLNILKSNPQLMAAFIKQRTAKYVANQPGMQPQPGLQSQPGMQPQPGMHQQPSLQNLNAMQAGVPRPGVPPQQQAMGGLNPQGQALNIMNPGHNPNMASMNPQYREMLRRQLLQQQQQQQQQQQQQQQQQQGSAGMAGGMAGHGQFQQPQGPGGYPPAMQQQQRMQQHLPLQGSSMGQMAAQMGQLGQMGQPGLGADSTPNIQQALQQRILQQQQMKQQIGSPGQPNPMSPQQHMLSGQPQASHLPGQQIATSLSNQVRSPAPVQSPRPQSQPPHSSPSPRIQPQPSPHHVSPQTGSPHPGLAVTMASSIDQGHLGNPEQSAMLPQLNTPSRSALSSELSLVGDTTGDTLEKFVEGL

| Structure (SMILES) | DC50 (CBP) | Dmax (CBP) | Dmax (p300) | DC50 (p300) | P300 A549 2 h HiBit DMax (%) (p300) | CBP A549 24 h HiBit DMax (%) (CBP) |
| --- | --- | --- | --- | --- | --- | --- |
| CCN(c1cnc(-c2cnc(C(=O)NCC#Cc3ccc4occ(C5CCC(=O)NC5=O)c4c3)c(C)c2)nc1)c1cc(C(C)C)c2c(c1)n(C)c(=O)n2C (centres unmarked) [Example A70, N-(3-(3-(2,6-dioxopiperidin-3-yl)benzofuran-5-yl)prop-2-yn-1-yl)-5-(5-(ethyl(7-isopropyl-1,3-dimethyl-2-oxo-2,3-dihydro-1H-benzo[d]imidazol-5-yl)amino)pyrimidin-2-yl)-3-methylpicolinamide] | > 1000 nM | < 20% | > 80% | 1 to 9.9 nM |  |  |
| Cc1ccc(-c2ccc3c(c2)n(C)c(=O)n3C)c2cnc(-c3ccc(C(=O)NCC#Cc4ccc5occ(C6CCC(=O)NC6=O)c5c4)nc3)cc12 (centres unmarked) [Example A72, 5-(8-(1,3-dimethyl-2-oxo-2,3-dihydro-1H-benzo[d]imidazol-5-yl)-5-methylisoquinolin-3-yl)-N-(3-(3-(2,6-dioxopiperidin-3-yl)benzofuran-5-yl)prop-2-yn-1-yl)picolinamide] | > 1000 nM | < 20% | > 80% | 1 to 9.9 nM |  |  |
| CC(C)c1cc(C2=CC(C)(C)Oc3cc(-c4ccc(C(=O)NCC#Cc5ccc6occ(C7CCC(=O)NC7=O)c6c5)nc4)ncc32)cc2c1n(C)c(=O)n2C (centres unmarked) [Example A75, N-(3-(3-(2,6-dioxopiperidin-3-yl)benzofuran-5-yl)prop-2-yn-1-yl)-5-(4-(7-isopropyl-1,3-dimethyl-2-oxo-2,3-dihydro-1H-benzo[d]imidazol-5-yl)-2,2-dimethyl-2H-pyrano[3,2-c]pyridin-7-yl)picolinamide] | > 1000 nM | < 20% | > 80% | 1 to 9.9 nM |  |  |
| Cc1cc(-c2ncc3c(n2)CCCN3c2ccc3c(c2)n(C)c(=O)n3C)cnc1C(=O)NCC#Cc1ccc2occ(C3CCC(=O)NC3=O)c2c1 (centres unmarked) [Example A79, 5-(5-(1,3-dimethyl-2-oxo-2,3-dihydro-1H-benzo[d]imidazol-5-yl)-5,6,7,8-tetrahydropyrido[3,2-d]pyrimidin-2-yl)-N-(3-(3-(2,6-dioxo-piperidin-3-yl)benzofuran-5-yl)prop-2-yn-1-yl)-3-methylpicolinamide] | > 1000 nM | < 20% | > 80% | 1 to 9.9 nM |  |  |
| CC(C)c1cc(C2CC(C)(C)Oc3cc(-c4ccc(C(=O)NCC#Cc5ccc6occ(C7CCC(=O)NC7=O)c6c5)nc4)ncc32)cc2c1n(C)c(=O)n2C (centres unmarked) [Example A83, N-(3-(3-(2,6-dioxo-piperidin-3-yl)benzofuran-5-yl)prop-2-yn-1-yl)-5-(4-(7-isopropyl-1,3-dimethyl-2-oxo-2,3-dihydro-1H-benzo [d]imidazol-5-yl)-2,2-dimethyl-3,4-dihydro-2H-pyrano[3,2-c]pyridin-7-yl) picolinamide] | > 1000 nM | < 20% | > 80% | 1 to 9.9 nM |  |  |
| Cc1cc(-c2ccc3c(c2)n(C)c(=O)n3C)c2cnc(-c3ccc(C(=O)NCC#Cc4ccc5occ(C6CCC(=O)NC6=O)c5c4)nc3)cc2c1 (centres unmarked) [Example A84, 5-(8-(1,3-dimethyl-2-oxo-2,3-dihydro-1H-benzo[d]imidazol-5-yl)-6-methylisoquinolin-3-yl)-N-(3-(3-(2,6-dioxo-piperidin-3-yl)benzofuran-5-yl)prop-2-yn-1-yl) picolinamide] | > 1000 nM | < 20% | > 80% | 10 to 99 nM |  |  |
| Cn1c(=O)n(C)c2c(N3CC4CCC(C3)O4)nc(-c3cccc4cc(-c5ccc(C(=O)NCC#Cc6ccc7occ(C8CCC(=O)NC8=O)c7c6)nc5)ncc34)cc21 (centres unmarked) [Example A86, 5-(8-(4-(8-oxa-3-azabicyclo[3.2.1]octan-3-yl)-1,3-dimethyl-2-oxo-2,3-dihydro-1H-imidazo[4,5-c]pyridin-6-yl)isoquinolin-3-yl)-N-(3-(3-(2,6-dioxo-piperidin-3-yl)benzofuran-5-yl)prop-2-yn-1-yl)picolinamide] | > 1000 nM | < 20% | > 80% | 1 to 9.9 nM |  |  |
| Cc1cc(-c2cc3cccc(-c4cc(C)c5c(c4)n(C)c(=O)n5C)c3cn2)cnc1C(=O)NCC#Cc1ccc2occ(C3CCC(=O)NC3=O)c2c1 (centres unmarked) [Example A87, N-(3-(3-(2,6-dioxo-piperidin-3-yl)benzofuran-5-yl)prop-2-yn-1-yl)-3-methyl-5-(8-(1,3,7-trimethyl-2-oxo-2,3-dihydro-1H-benzo [d]imidazol-5-yl)isoquinolin-3-yl)picolinamide] | > 1000 nM | < 20% | > 80% | 1 to 9.9 nM |  |  |
| Cc1cc(-c2ncc3c(n2)OCCN3c2cc(C)c3c(c2)n(C)c(=O)n3C)cnc1C(=O)NCC#Cc1ccc2occ(C3CCC(=O)NC3=O)c2c1 (centres unmarked) [Example A88, N-(3-(3-(2,6-dioxo-piperidin-3-yl)benzofuran-5-yl)prop-2-yn-1-yl)-3-methyl-5-(5-(1,3,7-trimethyl-2-oxo-2,3-dihydro-1H-benzo [d]imidazol-5-yl)-6,7-dihydro-5H-pyrimido [4,5-b][1,4]oxazin-2-yl)picolinamide] | > 1000 nM | < 20% | > 80% | > 1000 nM |  |  |
| CC(C)c1cc(N2CCOc3nc(-c4ccc(C(=O)NCC#Cc5ccc6occ(C7CCC(=O)NC7=O)c6c5)nc4)ncc32)cc2c1n(C)c(=O)n2C (centres unmarked) [Example A89, N-(3-(3-(2,6-dioxo-piperidin-3-yl)benzofuran-5-yl)prop-2-yn-1-yl)-5-(5-(7-isopropyl-1,3-dimethyl-2-oxo-2,3-dihydro-1H-benzo[d]imidazol-5-yl)-6,7-dihydro-5H-pyrimido [4,5-b][1,4]oxazin-2-yl)picolinamide] | > 1000 nM | < 20% | > 80% | > 1000 nM |  |  |
| Cc1cc(-c2ncc3c(n2)OCCN3c2ccc3c(c2)n(C)c(=O)n3C)cnc1C(=O)NCC#Cc1ccc2occ(C3CCC(=O)NC3=O)c2c1 (centres unmarked) [Example A92, 5-(5-(1,3-dimethyl-2-oxo-2,3-dihydro-1H-benzo[d]imidazol-5-yl)-6,7-dihydro-5H-pyrimido[4,5-b][1,4]oxazin-2-yl)-N-(3-(3-(2,6-dioxopiperidin-3-yl)benzofuran-5-yl)prop-2-yn-1-yl)-3-methylpicolinamide] | > 1000 nM | < 20% |  | 1 to 9.9 nM | A (“A”: > 80%) |  |
| Cc1cc(-c2ncc3c(n2)OCCN3c2ccc3c(c2)n(C)c(=O)n3C)cnc1C(=O)NCC#Cc1ccc2occ(C3CCC(=O)NC3=O)c2c1 (centres unmarked) [Example A93, 5-(5-(1,3-dimethyl-2-oxo-2,3-dihydro-1H-benzo[d]imidazol-5-yl)-6,7-dihydro-5H-pyrimido[4,5-b][1,4]oxazin-2-yl)-N-(3-(3-(2,6-dioxopiperidin-3-yl)benzofuran-5-yl)prop-2-yn-1-yl)-3-methylpicolinamide] | > 1000 nM |  |  | 10 to 99 nM | D (“D”: 20-39%) | E (“E”: < 20%) |
| CCN(c1cnc(-c2cnc(C(=O)NCC#Cc3ccc4occ(C5CCC(=O)NC5=O)c4c3)c(C)c2)nc1)c1cc(C2CCOCC2)c2c(c1)n(C)c(=O)n2C (centres unmarked) [Example A95, 5-(5-((1,3-dimethyl-2-oxo-7-(tetrahydro-2H-pyran-4-yl)-2,3-dihydro-1H-benzo [d]imidazol-5-yl)(ethyl)amino)pyrimidin-2-yl)-N-(3-(3-(2,6-dioxopiperidin-3-yl)benzofuran-5-yl)prop-2-yn-1-yl)-3-methylpicolinamide] | > 1000 nM | < 20% | > 80% | 1 to 9.9 nM |  |  |
| Cc1cc(-c2cccc3cc(-c4ccc(C(=O)NCC#Cc5ccc6occ(C7CCC(=O)NC7=O)c6c5)nc4)ncc23)cc2c1n(C)c(=O)n2C (centres unmarked) [Example A96, N-(3-(3-(2,6-dioxo-piperidin-3-yl)benzofuran-5-yl)prop-2-yn-1-yl)-5-(8-(1,3,7-trimethyl-2-oxo-2,3-dihydro-1H-benzo[d]imidazol-5-yl)isoquinolin-3-yl)picolinamide] | > 1000 nM | < 20% | > 80% | 1 to 9.9 nM |  |  |
| CC(C)c1cc(-c2cn(C)c(=O)c3cc(-c4ccc(C(=O)NCC#Cc5ccc6occ(C7CCC(=O)NC7=O)c6c5)nc4)ncc23)cc2c1n(C)c(=O)n2C (centres unmarked) [Example A97, N-(3-(3-(2,6-dioxo-piperidin-3-yl)benzofuran-5-yl)prop-2-yn-1-yl)-5-(8-(7-isopropyl-1,3-dimethyl-2-oxo-2,3-dihydro-1H-benzo [d]imidazol-5-yl)-6-methyl-5-oxo-5,6-dihydro-2,6-naphthyridin-3-yl) picolinamide] | 10 to 99 nM | 40 to 59% | > 80% | 1 to 9.9 nM |  |  |
| Cn1c(=O)n(C)c2c(N3C4COCC3C4)nc(-c3cccc4cc(-c5ccc(C(=O)NCC#Cc6ccc7occ(C8CCC(=O)NC8=O)c7c6)nc5)ncc34)cc21 (centres unmarked) [Example A99, 5-(8-(4-(3-oxa-6-azabicyclo[3.1.1]heptan-6-yl)-1,3-dimethyl-2-oxo-2,3-dihydro-1H-imidazo[4,5-c]pyridin-6-yl)isoquinolin-3-yl)-N-(3-(3-(2,6-dioxo-piperidin-3-yl)benzofuran-5-yl)prop-2-yn-1-yl)picolinamide] | > 1000 nM | < 20% | > 80% | < 1 nM |  |  |
| CC(C)c1cc(N2CCCc3cc(-c4ccc(C(=O)NCC#Cc5ccc6occ(C7CCC(=O)NC7=O)c6c5)nc4)ncc32)cc2c1n(C)c(=O)n2C (centres unmarked) [Example A100, N-(3-(3-(2,6-dioxo-piperidin-3-yl)benzofuran-5-yl)prop-2-yn-1-yl)-5-(1-(7-isopropyl-1,3-dimethyl-2-oxo-2,3-dihydro-1H-benzo [d]imidazol-5-yl)-1,2,3,4-tetrahydro-1,7-naphthyridin-6-yl)picolinamide] | 10 to 99 nM | 20 to 39% | > 80% | 1 to 9.9 nM |  |  |

Source: US20250114345A1, “COMPOUNDS AND COMPOSITIONS AS CBP/P300 DEGRADERS AND USES THEREOF” (Oncopia Therapeutics, Inc. d/b/a/ SK Life Science Labs, priority 2023, published 2025)
